Assay results taken from patent US12528777B2, “Quinazolinones derivatives for treatment of non-alcoholic fatty liver disease, preparation and use thereof” (Council of Scientific and Industrial Research, priority 2020, dated 2026).
Entries after “also recorded” stand apart in the source; their conditions may differ.

What was measured:
ATGL [1] = assay: ATGL level in mouse adipose tissue explants (western blot); type: cell-based; conditions: 24 hours, 100 nM, 500 nM and 1 μM
Protocol: (§1) To further strengthen the efficiency of the compounds 9 and 107, primary hepatocytes were isolated from mice and these compounds were treated in a dose dependent manner for 24 hours. Primary hepatocytes and adipose tissue explants were isolated from mice and subjected to compound treatment for 24 hours at the doses of 100 nM, 500 nM and 1 μM. Post cell harvesting, western blot was carried out with the lysate to check the ATGL level. ATGL and COP1 antibodies were used. Actin served the purpose of a loading control.
2. Adipocytes—2-4 months old chow-fed black male mouse (C57bl/6) was sacrificed using chloroform (SRL) and was cleaned with 70% ethanol. Under aseptic conditions, the ventral side of the mouse was cut open, and gonadal (epididymal) white adipose tissue were excised using scissors and suspended in 1×PBS supplemented with 0.1% BSA in a 10 cm culture plate. The attached blood vessels were removed and the adipose tissue was minced as much as possible. The suspension was centrifuged at 50 g for 2 minutes at 4° C. After centrifugation, the adipose tissue pieces suspended at the uppermost layer of the supernatant as emulsion were carefully extracted and plated in DMEM in 35 mm culture dishes. The explant tissue thus obtained was treated with different concentrations of compounds after 6-7 hours.

[2] = Metabolic stability using Human Liver Microsomes; type: in vitro ADME; conditions: for % QH (Well stirred model): NADPH, 0-60 min
Protocol: 1 mM stock solution of test compound was prepared in DMSO and diluted with Acetonitrile:Water (1:1) to get a 100 μM working concentration. 100 mL of Milli Q water was added to K2HPO4 (1.398 g) and KH2PO4 (0.27 g) to get final pH 7.4 solution of potassium phosphate buffer. […] The above mixture was pre incubated for 15 minutes at 37° C. After pre incubation, 32.5 μL of the mixture was added to 17.5 μL of buffer, this was incubated for 60 minutes at 37° C. [60 min Without Cofactor (NADPH)]. 16.25 μL of the pre incubated mixture and 8.75 μL of cofactor was added to 150 μL of acetonitrile containing internal standard [0 min Sample]. 62 μL of cofactor was added to remaining pre incubation mixture [Incubation mixture]. 25 μL of incubation mixture at 0, 5, 15, 30, 60 min and 60 min without cofactor were precipitated with 150 μL of acetonitrile containing internal standard, vortexed and centrifuged at 4000 rpm at 4° C. for 20 minutes. 120 μL of supernatant was diluted with 120 μL of water and analyzed by LC-MS/MS [sample preparation].

ATGL [3] = assay: Reversal of ATGL decrease in COP1 overexpressing HepG2 cells; type: cell-based; conditions: myc-DDK-COP1, 5 μM, 24 hours
Protocol: COP1 is an E3 ubiquitin ligase with ATGL as one of its targets for ubiquitination and subsequent proteasomal degradation by 26S proteasome. Therefore, it is only legit for ATGL levels to decrease upon COP1 overexpression. To this end, HepG2 cells were transfected with 500 ng of myc-DDK-COP1 plasmid using Lipofectamine 2000 and treated with 5 μM of the compounds 9 and 10 for 24 hours. 48 hours post transfection, cells were harvested and western blot was carried out.

ATGL [4] = assay: In vivo study: ATGL level in mouse liver; parameters: species or system C57BL/6 mice; conditions: 30 mg/kg orally
Protocol: (§2) 6-8 weeks old healthy female C57BL/6 mice (average weight: 25 grams) were taken for the study. These were then divided into three groups comprising of three mice per group (Control, compound 107 fed for 8 hours and compound 107 fed for 16 hours). Mice were fed with 30 mg/kg of compound 107 orally. The compound was dissolved in 25% DMSO and 75% PBS. The control group was fed only with the solvent in which the compound was dissolved. Post 8 hours and 16 hours of feeding, mice were sacrificed and a portion of the excised liver tissue was homogenized in lysis buffer containing protease inhibitor cocktail. The homogenate was centrifuged at 20,000 g for 30 minutes following which the supernatant containing the protein lysate was collected. The lysate was then diluted accordingly and protein estimation was carried out by Bradford Assay. This was followed by Western Blotting wherein the levels of ATGL and COP1 were checked. Actin was used as the loading control.

COP1 [5] = target: T1, COP1 (Mus musculus, UniProt Q9R1A8); assay: In vivo study: COP1 level in mouse liver; parameters: from tissue; host or cells: mouse liver (in vivo dosing); species or system C57BL/6 mice; conditions: 30 mg/kg orally
Protocol: as §2

COP1 [6] = target: T1, COP1; assay: COP1 level in primary mouse hepatocytes (western blot); type: cell-based; parameters: endogenous in cells; host or cells: primary mouse hepatocytes (C57bl/6); conditions: 24 hours
Protocol: as §1
1. Hepatocytes—2-4 months old chow-fed black male mouse (C57bl/6) was sacrificed using chloroform (SRL) and was cleaned with 70% ethanol. […] Blood was drawn from the heart in order to prevent backflow into liver while perfusion. The butterfly cannula was inserted into the PV and 20 ml of HBSS (Hank's Balanced Salt Solution; 5 mM KCl, 0.4 mM KH2PO4, 4 mM NaHCO3, 140 mM NaCl, 0.3 mM Na2HPO4, 6 mM Glucose, HEPES, 0.5 mM MgCl2·6H2O, 0.4 mM MgSO4·7H2O, 0.5 mM EDTA; not containing 1 mM CaCl2)) was allowed to pass through the liver (Perfusion) at a constant flow rate of 3 ml/min, maintained by Masterflex digital peristaltic pump (Cole-Parmer). The IVC was cut as soon as the passage of the buffer through the liver began, so that blood and perfusate from liver is drained through the IVC. The liver blanched and became pale in color upon this treatment. […]

T1 sequence (Q9R1A8 whole entry): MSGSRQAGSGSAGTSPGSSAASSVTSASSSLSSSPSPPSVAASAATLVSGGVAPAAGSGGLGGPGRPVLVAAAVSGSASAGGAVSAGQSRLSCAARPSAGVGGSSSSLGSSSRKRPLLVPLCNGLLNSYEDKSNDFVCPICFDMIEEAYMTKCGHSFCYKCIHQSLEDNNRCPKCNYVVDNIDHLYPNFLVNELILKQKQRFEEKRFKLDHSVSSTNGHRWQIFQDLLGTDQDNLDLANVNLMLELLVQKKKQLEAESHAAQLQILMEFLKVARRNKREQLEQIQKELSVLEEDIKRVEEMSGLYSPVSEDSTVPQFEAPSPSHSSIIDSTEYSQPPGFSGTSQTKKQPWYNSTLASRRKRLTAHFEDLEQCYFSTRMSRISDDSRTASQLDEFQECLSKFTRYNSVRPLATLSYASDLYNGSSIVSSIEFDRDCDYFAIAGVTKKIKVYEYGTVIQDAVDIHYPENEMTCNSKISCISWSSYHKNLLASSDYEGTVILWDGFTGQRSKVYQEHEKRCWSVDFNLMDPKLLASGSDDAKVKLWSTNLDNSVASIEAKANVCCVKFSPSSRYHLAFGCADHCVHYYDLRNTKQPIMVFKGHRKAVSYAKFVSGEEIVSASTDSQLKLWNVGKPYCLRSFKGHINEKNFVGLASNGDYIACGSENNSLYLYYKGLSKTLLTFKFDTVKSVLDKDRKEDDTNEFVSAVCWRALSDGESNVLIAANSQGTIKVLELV

| SMILES | ATGL level in mouse adipose explants (ATGL [1]) | Clearance class from % QH [2] | % QH (Well stirred model) [2] [%] | Restoration of ATGL level upon COP1 overexpression (ATGL [3]) | ATGL level in liver, 8 hours after feeding (ATGL [4]; 8 hours) | ATGL level in liver, 16 hours after feeding (ATGL [4]; 16 hours) | COP1 level in liver, 8 hours after feeding (COP1 [5]) | COP1 level in primary mouse hepatocytes (COP1 [6]) |
| --- | --- | --- | --- | --- | --- | --- | --- | --- |
| COCCn1cnc2ccc(NC(=O)Nc3cccc(C(C)=O)c3)cc2c1=O [Compound 9, 1-(3-acetylphenyl)-3-(3-(2-methoxyethyl)-4-oxo-3,4-dihydroquinazolin-6-yl)urea] | no such changes were observed; also recorded: this effect was absent; also recorded: did not show any significant changes in ATGL protein | lower clearance | 21.26 | could restore the reduced ATGL level; also recorded: could restore ATGL to its normal level | – | – | – | – |
| COCCn1c(C)nc2ccc(NC(=O)Nc3cccc(C(C)=O)c3)cc2c1=O [Compound 107, 1-(3-acetylphenyl)-3-(3-(2-methoxyethyl)-2-methyl-4-oxo-3,4-dihydroquinazolin-6-yl)urea] | no such changes were observed; also recorded: this effect was absent; also recorded: did not show any significant changes in ATGL protein | – | – | – | modestly increase ATGL level; also recorded: no significant impact | modestly increase ATGL level; also recorded: effective in increasing ATGL and COP1 levels | no such effect on COP1; also recorded: no significant impact | – |
| CC(=O)c1cccc(NC(=O)Nc2ccc3ncn(CCCN4CCOCC4)c(=O)c3c2)c1 [Compound 139, 1-(3-acetylphenyl)-3-(3-(3-morpholinopropyl)-4-oxo-3,4-dihydroquinazolin-6-yl)urea] | – | medium clearance | 35.3 | – | – | – | – | – |
| COCCn1c(-c2cccnc2)nc2ccc(NC(=O)Nc3cccc(C(C)=O)c3)cc2c1=O [Compound 215, 1-(3-acetylphenyl)-3-(3-(2-methoxyethyl)-4-oxo-2-(pyridin-3-yl)-3,4-dihydroquinazolin-6-yl)urea] | – | lower clearance | 15.5 | – | – | – | – | – |
| COCCn1c(-c2ccncc2)nc2ccc(NC(=O)Nc3cccc(C(C)=O)c3)cc2c1=O [Compound 219, 1-(3-acetylphenyl)-3-(3-(2-methoxyethyl)-4-oxo-2-(pyridin-4-yl)-3,4-dihydroquinazolin-6-yl)urea] | – | lower clearance | 24.5 | – | – | – | – | – |
| COCCn1c(CN2CCCCC2)nc2ccc(NC(=O)Nc3cccc(C(C)=O)c3)cc2c1=O [Compound 238, 1-(3-acetylphenyl)-3-(3-(2-methoxyethyl)-4-oxo-2-(piperidin-1-ylmethyl)-3,4-dihydroquinazolin-6-yl)urea] | – | higher clearance | 83.5 | – | – | – | – | increase ATGL and COP1 levels dose dependently; also recorded: increased only with 5 μM concentration |
